According to paper PMC5836727 (ACS chemical biology, 2017):

What was measured:
firefly luciferase [1] = biological target: T1, firefly luciferase (Photinus pyralis, UniProt P08659); assay: bioluminescence burst kinetics after rapid injection; type: biochemical; conditions: 100 nM enzyme, 100 uM substrate
firefly luciferase [2] = biological target: T1, firefly luciferase; assay: bioluminescence of transfected live CHO cells; type: cell-based; conditions: 100 uM in HBSS
CG6178 = biological target: T2, CG6178 (Drosophila melanogaster, UniProt Q9VCC6); assay: bioluminescence; type: biochemical; conditions: ATP, MgSO4, pH 7.4; 20 nM enzyme, 250 uM luciferin
T2 sequence (Q9VCC6 1-544): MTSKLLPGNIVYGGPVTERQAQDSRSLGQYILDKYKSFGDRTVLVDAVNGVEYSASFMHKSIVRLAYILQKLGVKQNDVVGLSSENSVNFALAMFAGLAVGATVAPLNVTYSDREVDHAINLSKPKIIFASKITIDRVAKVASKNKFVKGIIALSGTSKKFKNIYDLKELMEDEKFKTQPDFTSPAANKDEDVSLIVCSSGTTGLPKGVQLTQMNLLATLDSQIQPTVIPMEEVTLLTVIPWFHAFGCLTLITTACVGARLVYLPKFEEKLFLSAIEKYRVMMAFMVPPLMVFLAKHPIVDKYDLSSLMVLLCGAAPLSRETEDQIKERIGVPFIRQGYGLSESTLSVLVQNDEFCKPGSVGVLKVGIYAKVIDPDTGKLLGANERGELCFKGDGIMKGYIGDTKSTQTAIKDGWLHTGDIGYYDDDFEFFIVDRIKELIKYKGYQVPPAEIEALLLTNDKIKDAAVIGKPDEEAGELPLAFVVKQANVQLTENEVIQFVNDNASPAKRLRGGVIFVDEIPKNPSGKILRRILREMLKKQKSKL

T1 sequence (P08659 whole entry): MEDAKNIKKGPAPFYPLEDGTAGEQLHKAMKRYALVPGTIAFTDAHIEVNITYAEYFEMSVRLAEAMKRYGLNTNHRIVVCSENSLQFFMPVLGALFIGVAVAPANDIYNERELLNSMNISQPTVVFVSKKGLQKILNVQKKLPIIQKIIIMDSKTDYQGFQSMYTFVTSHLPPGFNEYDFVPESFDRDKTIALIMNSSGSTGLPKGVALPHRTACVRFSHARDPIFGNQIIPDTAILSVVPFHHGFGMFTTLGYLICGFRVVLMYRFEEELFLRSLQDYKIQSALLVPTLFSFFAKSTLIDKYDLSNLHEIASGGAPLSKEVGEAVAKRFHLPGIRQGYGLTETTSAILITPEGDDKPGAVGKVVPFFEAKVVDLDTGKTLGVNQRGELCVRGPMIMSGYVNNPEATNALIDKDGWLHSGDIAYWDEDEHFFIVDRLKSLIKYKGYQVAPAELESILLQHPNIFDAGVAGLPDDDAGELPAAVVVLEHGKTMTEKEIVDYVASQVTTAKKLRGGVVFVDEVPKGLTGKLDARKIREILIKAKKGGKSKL

## O=C(O)[C@H]1CSC(c2nc3ccc(O)cc3s2)=N1 [D-luciferin]
Firefly luciferase [1]
  bioluminescence burst kinetics after rapid injection: more pronounced with the tighter-binding synthetic luciferins than with D-luciferin

## O=C(O)[C@H]1CSC(/C=C/c2ccc(N3CCCC3)cc2)=N1 [compound 5, (S,E)-2-(4-(pyrrolidin-1-yl)styryl)-4,5-dihydrothiazole-4-carboxylic acid]
Firefly luciferase [2]
  bioluminescence of transfected live CHO cells: all three are substrates for firefly luciferase and AbLL

## CN1CCc2cc3nc(C4=N[C@@H](C(=O)O)CS4)sc3cc21 [CycLuc2]
CG6178
  bioluminescence (photon flux, IVIS-100; burst kinetics): we found that CG6178 is capable of luciferase activity when treated with the synthetic luciferin CycLuc2
